Test results published in ChEMBL document CHEMBL1155011, “Structure-activity relationships of the cycloalkanol ethylamine scaffold: discovery of selective norepinephrine reuptake inhibitors” (J Med Chem, 2008).
pIC50, pKi: −log10 of the molar value.

Experiments:
[1] = molecular target: T1, Sodium-dependent dopamine transporter (Homo sapiens, UniProt Q01959); test: Displacement of [3H]WIN-35428 from human recombinant dopamine transporter expressed in CHO cells at 1000 nM; format: cell-based
[2] = molecular target: T2, Sodium-dependent serotonin transporter (Homo sapiens, UniProt P31645); test: Inhibition of 5HT uptake at human SERT expressed in human JAR cells at 1000 nM; format: cell-based
Target sequence in this assay (P31645 whole entry, looked up): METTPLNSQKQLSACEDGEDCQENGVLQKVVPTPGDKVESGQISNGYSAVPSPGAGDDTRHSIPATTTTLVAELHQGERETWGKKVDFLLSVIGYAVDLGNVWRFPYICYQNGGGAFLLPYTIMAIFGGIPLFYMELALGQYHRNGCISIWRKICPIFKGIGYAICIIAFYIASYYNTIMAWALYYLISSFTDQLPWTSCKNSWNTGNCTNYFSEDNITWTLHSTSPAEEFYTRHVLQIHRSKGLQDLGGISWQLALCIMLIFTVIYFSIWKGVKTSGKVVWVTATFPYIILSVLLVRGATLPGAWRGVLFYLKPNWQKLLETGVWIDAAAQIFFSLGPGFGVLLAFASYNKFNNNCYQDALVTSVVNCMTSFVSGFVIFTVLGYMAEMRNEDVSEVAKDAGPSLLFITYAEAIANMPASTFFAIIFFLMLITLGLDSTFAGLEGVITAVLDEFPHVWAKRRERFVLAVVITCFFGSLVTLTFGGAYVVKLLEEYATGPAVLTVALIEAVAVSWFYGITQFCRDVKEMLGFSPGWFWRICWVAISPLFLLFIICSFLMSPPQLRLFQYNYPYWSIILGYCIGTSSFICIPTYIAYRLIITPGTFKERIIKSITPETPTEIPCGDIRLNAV

[3] = molecular target: T3, Sodium-dependent noradrenaline transporter (Homo sapiens, UniProt P23975); test: Displacement of [3H]nisoxetine from human norepinephrine transporter expressed in MDCK-Net6 cells at 1000 nM; format: cell-based
[4] = molecular target: T3, Sodium-dependent noradrenaline transporter; test: Inhibition of norepinephrine uptake at human norepinephrine transporter expressed in MDCK-Net6 cells at 1000 nM; format: cell-based
[5] = molecular target: T1, Sodium-dependent dopamine transporter; test: biochemical
[6] = molecular target: T3, Sodium-dependent noradrenaline transporter
[7] = molecular target: T2, Sodium-dependent serotonin transporter; format: cell-based, JAR
Target sequence in this assay (P31645 whole entry): as the sequence (P31645 whole entry, looked up) above

[8] = molecular target: T3, Sodium-dependent noradrenaline transporter; test: biochemical
[9] = molecular target: Transporter (Rattus norvegicus, UniProt Q63380)
Description: Inhibition of norepinephrine uptake at rat brain norepinephrine transporter

[10] = species: Homo sapiens; test: Selectivity ratio of IC50 for human NET over IC50 for human SERT

T3 sequence (P23975 whole entry): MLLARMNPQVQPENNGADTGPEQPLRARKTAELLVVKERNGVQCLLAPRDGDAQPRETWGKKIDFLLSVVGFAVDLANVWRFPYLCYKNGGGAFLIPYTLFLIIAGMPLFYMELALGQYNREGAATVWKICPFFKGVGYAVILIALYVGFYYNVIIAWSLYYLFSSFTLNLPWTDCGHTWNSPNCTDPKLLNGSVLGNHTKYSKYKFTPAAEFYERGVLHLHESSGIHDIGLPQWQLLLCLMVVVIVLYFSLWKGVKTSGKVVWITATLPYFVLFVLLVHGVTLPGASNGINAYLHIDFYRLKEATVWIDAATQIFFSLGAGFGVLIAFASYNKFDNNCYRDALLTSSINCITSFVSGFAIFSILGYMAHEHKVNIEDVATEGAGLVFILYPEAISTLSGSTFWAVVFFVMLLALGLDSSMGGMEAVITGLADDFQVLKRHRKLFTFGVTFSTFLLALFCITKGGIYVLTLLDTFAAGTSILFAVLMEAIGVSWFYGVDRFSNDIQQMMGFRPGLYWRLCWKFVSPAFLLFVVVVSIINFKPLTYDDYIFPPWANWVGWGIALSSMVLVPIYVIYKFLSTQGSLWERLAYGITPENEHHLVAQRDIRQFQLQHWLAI
T1 sequence (Q01959 whole entry): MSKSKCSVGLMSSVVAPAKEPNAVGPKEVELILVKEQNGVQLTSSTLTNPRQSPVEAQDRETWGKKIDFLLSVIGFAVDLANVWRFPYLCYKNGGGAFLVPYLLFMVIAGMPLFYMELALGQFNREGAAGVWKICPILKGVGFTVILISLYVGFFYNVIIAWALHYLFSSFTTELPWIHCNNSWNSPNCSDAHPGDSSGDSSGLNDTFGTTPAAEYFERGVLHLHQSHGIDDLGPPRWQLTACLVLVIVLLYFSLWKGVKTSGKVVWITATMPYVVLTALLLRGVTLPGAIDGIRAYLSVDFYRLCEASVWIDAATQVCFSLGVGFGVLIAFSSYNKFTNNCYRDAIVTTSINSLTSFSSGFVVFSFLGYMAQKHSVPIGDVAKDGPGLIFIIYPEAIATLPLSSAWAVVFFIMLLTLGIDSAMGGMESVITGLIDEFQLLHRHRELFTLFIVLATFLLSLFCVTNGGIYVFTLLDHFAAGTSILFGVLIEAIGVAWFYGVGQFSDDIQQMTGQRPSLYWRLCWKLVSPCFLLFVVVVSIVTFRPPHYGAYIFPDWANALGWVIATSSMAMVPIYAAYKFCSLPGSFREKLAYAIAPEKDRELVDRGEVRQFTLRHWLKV
Chain of Transporter (Q63380 whole entry): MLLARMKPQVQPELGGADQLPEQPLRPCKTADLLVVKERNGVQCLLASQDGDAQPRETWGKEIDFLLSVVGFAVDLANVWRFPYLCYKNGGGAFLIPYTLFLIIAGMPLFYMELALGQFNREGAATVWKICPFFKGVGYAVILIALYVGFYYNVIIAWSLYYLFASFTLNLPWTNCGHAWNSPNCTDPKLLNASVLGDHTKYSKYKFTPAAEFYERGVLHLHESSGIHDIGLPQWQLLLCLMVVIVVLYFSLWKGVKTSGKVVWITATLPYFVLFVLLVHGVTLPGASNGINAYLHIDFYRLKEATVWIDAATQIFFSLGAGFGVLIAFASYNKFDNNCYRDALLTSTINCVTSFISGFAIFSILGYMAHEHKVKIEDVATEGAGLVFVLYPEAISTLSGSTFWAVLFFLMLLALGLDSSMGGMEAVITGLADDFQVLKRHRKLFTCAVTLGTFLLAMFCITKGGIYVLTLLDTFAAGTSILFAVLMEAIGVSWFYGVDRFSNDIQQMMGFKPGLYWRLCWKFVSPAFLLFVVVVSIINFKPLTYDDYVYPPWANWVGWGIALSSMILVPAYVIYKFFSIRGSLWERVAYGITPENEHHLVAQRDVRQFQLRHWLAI

What does the source list for `CN1CCN(C[C@@H](c2cccc(OC(F)(F)F)c2)C2(O)CCCCC2)CC1`?
Activity [1]: 5%; inhibition [2]: 4%

For `CN1CCN(CC(c2ccccc2F)C2(O)CCCCC2)CC1` (configuration not stated), which Activity [3] is on record?
The Activity was 34%.

And the inhibition [4]?
The inhibition was 19%.

With `OC1([C@@H](CN2CCNCC2)c2cccc(Cl)c2)CCCCC1` as the compound, how does the pKi [5] read?
The pKi was 6.47.

And the pIC50 [6]?
The pIC50 was 6.27.

What about the pIC50 [7] of the same compound?
Its pIC50 is 5.21.

And the pKi [8]?
The pKi was 6.67.

`CN1CCN(CC(c2ccc(Cl)cc2)C2(O)CCCCC2)CC1` (configuration not stated) was tested. Which Activity [1] did it give?
The Activity was 26%.

And the inhibition [2]?
The inhibition was 0%.

What about the pKi [8] of the same compound?
The pKi was 5.91.

What about the inhibition [4] of the same compound?
Its inhibition is 7%.

How did the pKi [5] turn out when `OC1([C@H](CN2CCNCC2)c2cccc(Cl)c2)CCCCC1` was run?
The pKi was 6.87.

And the pIC50 [6]?
Its pIC50 is 7.60.

And the pIC50 [7]?
The pIC50 was 5.57.

And the pKi [8]?
The pKi was 7.77.

`CN(C)C[C@H](c1cccc(Cl)c1)C1(O)CCCCC1` was tested. Which Activity [1] did it give?
The Activity was 0%.

What does the source list for `OC1([C@@H](CN2CCNCC2)c2cccc(OC(F)(F)F)c2)CCCCC1`?
Activity [1]: 15%; pIC50 [6]: 5.89; inhibition [2]: 11%; pKi [8]: 6.26

With `OC1(C(CN2CCNCC2)c2ccc(F)cc2)CCCCC1` (configuration not stated) as the compound, how does the Activity [1] read?
The Activity was 22%.

What about the pIC50 [6] of the same compound?
The pIC50 was 5.82.

And the inhibition [2]?
Its inhibition is 29%.

And the pKi [8]?
Its pKi is 5.99.

For `CN1CCN(CC(c2cccc(C(F)(F)F)c2)C2(O)CCCCC2)CC1` (configuration not stated), which Activity [1] is on record?
The Activity was 6%.

What about the pIC50 [6] of the same compound?
The pIC50 was 7.04.

What about the inhibition [2] of the same compound?
The inhibition was 28%.

And the pKi [8]?
The pKi was 7.21.

Which Activity [1] does the source give for `OC1(C(CN2CCNCC2)c2cccc(F)c2)CCCCC1` (configuration not stated) here?
Its Activity is 22%.

What about the pIC50 [6] of the same compound?
The pIC50 was 6.17.

What about the inhibition [2] of the same compound?
The inhibition was 12%.

What about the pKi [8] of the same compound?
The pKi was 6.43.

How did the Activity [1] turn out when `CN(C)C[C@@H](c1cccc(Cl)c1)C1(O)CCCCC1` was run?
Its Activity is 17%.

With `OC1(C(CN2CCNCC2)c2ccccc2F)CCCCC1` (configuration not stated) as the compound, how does the Activity [3] read?
The Activity was 38%.

What about the inhibition [4] of the same compound?
Its inhibition is 31%.

`OC1([C@H](CN2CCNCC2)c2cccc(OC(F)(F)F)c2)CCCCC1` was tested. Which Activity [1] did it give?
Its Activity is 13%.

What about the pIC50 [6] of the same compound?
Its pIC50 is 6.85.

What about the inhibition [2] of the same compound?
Its inhibition is 3%.

What about the pKi [8] of the same compound?
The pKi was 6.93.

How did the pKi [5] turn out when `CN1CCN(CC(c2cccc(Cl)c2)C2(O)CCCCC2)CC1` (configuration not stated) was run?
The pKi was 7.28.

And the pIC50 [6]?
The pIC50 was 7.24.

And the pIC50 [7]?
The pIC50 was 4.73.

And the pKi [8]?
The pKi was 7.34.

`CN(C)CC(c1ccc(Cl)cc1)C1(O)CCCCC1` (configuration not stated) was tested. Which pIC50 [9] did it give?
Its pIC50 is 6.52.

What about the Activity [1] of the same compound?
Its Activity is 23%.

What about the pIC50 [6] of the same compound?
Its pIC50 is 6.92.

And the pIC50 [7]?
Its pIC50 is 6.91.

What about the Ratio IC50 [10] of the same compound?
The Ratio IC50 was 1.

And the pKi [8]?
Its pKi is 6.60.

`OC1(C(CN2CCNCC2)c2cccc(OC(F)(F)F)c2)CCCCC1` (configuration not stated) was tested. Which Activity [1] did it give?
Its Activity is 13%.

What about the pIC50 [6] of the same compound?
Its pIC50 is 6.55.

And the inhibition [2]?
The inhibition was 3%.

And the pKi [8]?
The pKi was 6.85.

What does the source list for `COc1ccc(C(CN2CCN(C)CC2)C2(O)CCCCC2)cc1` (configuration not stated)?
Activity [1]: 0%; inhibition [2]: 11%; inhibition [4]: 34%
